Assay results reported in patent US7718768B2, “Biologically active peptide [sequence]” (CMS Peptides Patent Holding Company Limited, priority 2001, dated 2010).
Marks after values point to notes of the source that are not given here. No end group written: not given here.

How the values were obtained:
NK cell = NK cell cytotoxicity activity test (YAC-1 target cells, MTT) on spleen cells of treated mice; assay type: in vivo, BALB/c mice; settings: IFN-γ and IL-2 groups 3×10^5 IU/kg/day, X ± SD
Method: (§1) The above substances were all dissolved in 0.5 ml saline and injected intraperitoneal (i.p.) for 15 continuous days, once per day.
(§2) Ten mice per group. The day after the last test substance administration, the mice were sacrificed by cervical dislocation. The spleen was isolated aseptically and manually dispersed in cold D-Hank's solution using an injection needle. The dispersed cell suspension was further sieved through a 100 gauge 150 μm diameter stainless steel sieve. After centrifugation at 200 g for 10 minutes, the supernatant was discarded. The cell pellet was re-suspended in 10 volume of Tris-NH4Cl buffer and then kept standing still for 10 minutes at room temperature. The suspended cells were collected by centrifugation at 150 g for 10 minutes. The cells were washed 2-4 times with cold D-Hank's solution by re-suspending and collecting by centrifugation with condition as described above. The washed cells were then diluted to the desired cell densities by RPMI-1640 culture medium, containing 10% fetal bovine serum.
Mice spleen cells were prepared to 4×10^6/ml as described in section 1.1 above. Target cells YAC-1 were brought to log phase and adjusted to 1×10^5/ml. Using a 96 wells cell culture plate, 100 μl mouse spleen cells and 100 μl culture medium were added to the control well containing only the spleen cells; 100 μl target cells and 100 μl culture medium were added to the control well containing only target cells; 100 μl mouse spleen cells and 100 μl target cells were added to the NK activity assay well. Three parallel sets of the above were prepared per mouse.
Samples were centrifuged at 150 g for 10 minutes to collect the cells. The supernatant was discarded and 50 μl/well MTT of 1 mg/ml was added. The reaction mixture was then shaken for 2 minutes, and incubated at 37° C., 5% CO2 for 4 hours. The supernatant was discarded after centrifugation at 150 g for 10 minutes. 120 μl 40 mM HCl-2-propanol was added and shaken for 3 minutes. An ELISA reader was used to obtain OD570nm of each well referenced at 630 nm.

T lymphocyte [1] = system: T lymphocyte; set-up: species or system BALB/c mice; settings: mouse, in vivo, ip
anti-SRBC antibody = assay: Sheep Red Blood Cell (SRBC) hemolysis test, anti-SRBC antibody formation; assay type: in vivo, BALB/c mice; settings: SRBC on day 12, IFN-γ and IL-2 groups 3×10^5 IU/kg/day, X ± SD
Method: Sheep red blood cells (SRBC) were prepared by collecting blood from cervical vein and put into a sterile flask with glass beads. The flask was shaken for 3 minutes and the blood then mixed with Alsever solution (glucose 2.05 g, NaCl 0.4 g, […] 0.8 g, adjust to 100 ml with distilled water) and stored at 4° C. Immediately before use, samples were centrifuged at 130 g, 5 minutes to collect the SRBC. The cells were washed two times by re-suspension and centrifugation in normal saline. Then the cell pellet was collected by centrifugation at 180 g for 10 minutes and re-suspended in saline to make the final working SRBC suspension, 2% (v/v).
Complement was prepared by adding 10 volumes of fresh Cavy serum into one volume centrifuge packed SRBC, and then gently shaking for 30 minutes at 4° C. The SRBC was removed by centrifugation at 200 g for 10 minutes. 10 volumes of normal saline were added to obtain the working complement solution.
The test substances were administered as described in section 1.1, plus intraperitoneal injection 0.2 ml SRBC per mouse on day 12. On the day after the last test substance administration (day 16), blood was collected from the eye canthus and left at room temperature for one hour for serum exudation. After centrifugation at 200 g for 10 minutes, the serum was diluted by 500 times with normal saline.
To 1 ml diluted mouse serum of each mouse, 0.5 ml SRBC suspension was added. Ice cold. Then 1 ml working complement solution was added and incubated at 37° C. water bath for 10 minutes. Reactions were terminated by ice cold. Samples were then centrifuged at 200 g for 10 minutes to obtain the supernatant.
To 1 ml of this supernatant, 3 ml Drabkin solution was added and left at room temperature for 10 minutes. OD540nm was obtained.
Reference OD540nm was obtained by mixing 0.25 ml SRBC suspension with Drabkin solution to 4 ml and placed at room temperature for 10 minutes before OD540nm was taken. Sample serum index=(OD540nm of test sample[…]reference OD540nm)×500 3. The Effect of Peptides on the Phagocytosis Function of Mononuclear Phagocyte and the Weight of Immune Organ^[8,9].

[2] = immunity organ weight test (thymus gland index, spleen index); assay type: in vivo, BALB/c mice; settings: X ± SD
Method: as §1
(§3) One day after the last test substance administration (day 16), the liver, spleen, and thymus gland were separated and blotted dry with filter paper and weighed. The phagocytosis index α was calculated as below: α=(^3√K)(W÷WLS) key: W: body weight WLS: weight of liver plus spleen Thymus gland index(%)=(thymus weight/body weight)×100% Spleen index(%)=(spleen weight/body weight)×100%

T lymphocyte [3] = assay: T lymphocyte transformation test (ConA, MTT) on spleen cells of treated mice; assay type: in vivo, BALB/c mice; set-up: key: OD of assay wells divided by OD of control wells; settings: peptide 500 μg/kg/day i.p. 15 days; IFN-γ and IL-2 groups 3×10^5 IU/kg/day; X ± SD
Method: as §1, §2
(§4) Spleen cells of density 1×10^6/ml were placed onto a 96 wells cell culture plate, 100 μl/well, three parallel wells each of the assay sample and control sample per mouse. To the assay wells, 100 μl/well ConA of 100 μg/ml in RPMI-1640 was added, and 100 μl/well plain RPMI-1640 was used for the controls. The cells were incubated for 66 hrs at 37° C., 5% CO2. The cells were then pelleted by centrifugation at 150 g for 10 minutes.
50 μl/well MTT of 1 mg/ml in RPMI-1640 was added to the cell pellet and the cells re-suspended by shaking for 2 minutes. The incubation was continued for 4 hours. The supernatant was discarded after centrifugation at 150 g for 10 minutes. 120 μl 40 mM HCl-2-propanol was added to the cell pellet and shaken for 3 minutes. to obtain OD570nm of each well referenced at 630 nm. An ELISA reader was used
Each mouse formed three assay wells and three control wells. The Stimulation Index (SI) of each mouse was obtained by first deriving the average OD of the three parallel wells, then dividing the value of the assay wells by the control wells.

T lymphocyte [4] = assay: T lymphocyte IL-2 secretion test (HT-2 cell bioassay of ConA supernatant); assay type: in vivo, BALB/c mice; settings: IFN-γ and IL-2 groups 3×10^5 IU/kg/day, X ± SD
Method: as §1, §4
HT-2 cells at log phase were collected by centrifugation at 150 g for 10 minutes, and washed three times with cold Hank's solution by re-suspension and centrifugation. The collected HT-2 cells were re-suspended in RPMI-1640 and incubated at 37° C., 5% CO2 for 30 minutes. The cells were further washed twice with RPMI-1640 by re-suspension and centrifugation, and re-suspended to final concentration of 2×10^5/ml with RPMI-1640.
rIL-2 was diluted to the following concentration with RPMI-1640: 500 IU/ml, 250 IU/ml, 125 IU/ml, 62.5 IU/ml, 31.25 IU/ml, and […].
A 96 well cell culture plate was set up with three parallel wells per combination:
Negative control: 100 μl RPMI-1640+100 μl HT-2 cell suspension
rIL-2 standard: 100 μl rIL-2 solution+100 μl HT-2 cell suspension
Assay well: 100 μl diluted supernatant+100 μl HT-2 cell suspension
The plate was incubated at 37° C., 5% CO2 for 68 hours, then centrifuged at 150 g for 15 minutes and the supernatant removed. 100 μl 0.5 mg/ml MTT in RPMI-1640 without phenolsulfonphthalein was added into each well. After shaking for 3-4 minutes to re-suspend the cells, continue to incubate for another 4 hours. Samples were then centrifuged at 150 g for 15 minutes and the supernatant was removed. To each well, 120 μl 40 mM HCl-2-propanol was added, mixed for 3-4 minutes and OD analyzed at 570 nm, referenced at 630 nm with an ELISA plate reader.
The average OD of the three parallel wells of each dilution was taken and plotted against concentration on a semi-log paper, concentration on the X-axis. The concentration at 50% OD saturation was obtained for both the testing supernatant and rIL-2.

mononuclear phagocyte = assay: carbon particle clearance test, phagocytotic activity of mononuclear phagocyte; assay type: in vivo, BALB/c mice; set-up: key: α = (cube root of K)×(body weight ÷ liver+spleen weight); settings: IFN-γ and IL-2 groups 3×10^5 IU/kg/day, X ± SD
Method: On the next day after the last test substance administration (day 16), the mice were injected with […] body weight India ink (5 times dilution with normal saline) from the tail vein.
One minute and five minutes after Indian ink injection, 20 μl blood was obtained from the eye can thus with a heparinized tubing. The blood was mixed with 2 ml 0.1% w/v Na2CO3 and then OD680nm obtained. The outline clear index K was calculated by the following formula: K=(lgA1−lgA2)÷(t2−t1) Key: A1: OD680nm at first minute A2: OD680nm at fifth minute t2: 5 minutes […]
as §3

[5] = peptide 0.5 μg/kg/day i.p. 15 days
[6] = peptide 500 μg/kg/day i.p. 15 days
[7] = peptide 5 μg/kg/day i.p. 15 days
[8] = peptide 0.5 μg/kg/day i.p. 15 days, IFN-γ and IL-2 groups 3×10^5 IU/kg/day
[9] = peptide 5 μg/kg/day i.p. 15 days, IFN-γ and IL-2 groups 3×10^5 IU/kg/day
[10] = peptide 50 μg/kg/day i.p. 15 days, IFN-γ and IL-2 groups 3×10^5 IU/kg/day
[11] = peptide 500 μg/kg/day i.p. 15 days, IFN-γ and IL-2 groups 3×10^5 IU/kg/day
[12] = peptide 50 μg/kg/day i.p. 15 days

| Substance | NK cell cytotoxic activity (NK cell activity index) (NK cell; [5]) [%] | NK cell cytotoxic activity (NK cell activity index) (NK cell; [6]) [%] | activity of T lymphocyte in secreting IFN (T lymphocyte [1]) | anti-SRBC antibody formation (sample serum index) (anti-SRBC antibody; [5]) | anti-SRBC antibody formation (sample serum index) (anti-SRBC antibody; [7]) | weight of thymus gland (thymus gland index) [2, 8] | weight of thymus gland (thymus gland index) [2, 9] | weight of thymus gland (thymus gland index) [2, 10] | weight of thymus gland (thymus gland index) [2, 11] | stimulation index (T lymphocyte transformation) (T lymphocyte [3]) | NK cell cytotoxic activity (NK cell activity index) (NK cell; [12]) | anti-SRBC antibody formation (sample serum index) (anti-SRBC antibody; [12]) | weight of spleen (spleen index) [2, 6] [%] | NK cell cytotoxic activity (NK cell activity index) (NK cell; [7]) [%] | anti-SRBC antibody formation (sample serum index) (anti-SRBC antibody; [6]) | activity of T lymphocyte in secreting IL-2 (T lymphocyte [4]; [5]) | activity of T lymphocyte in secreting IL-2 (T lymphocyte [4]; [7]) [IU] | phagocytotic index (mononuclear phagocyte; [6]) | weight of spleen (spleen index) [2, 8] | phagocytotic index (mononuclear phagocyte; [7]) |
| --- | --- | --- | --- | --- | --- | --- | --- | --- | --- | --- | --- | --- | --- | --- | --- | --- | --- | --- | --- | --- |
| Phe Glu Pro Ser Phe (FEPSF; listed as Sus scrofa) [CMS028] | 79 ± 3 | 90 ± 5 | 96 ± 13 IU | 18 ± 5* Unit | 121 ± 48*^@^ Unit | 0.20 ± 0.06 % | 0.28 ± 0.06*^@^ % | 0.18 ± 0.04 % | 0.19 ± 0.02 % |  |  |  |  |  |  |  |  |  |  |  |
| MATAASSSSL [CMS021] |  |  | 143 ± 17*^@^ IU | 57 ± 9*^@ Unit | 82 ± 30*^@ Unit |  | 0.20 ± 0.06 % |  |  | 1.6 ± 0.1 | 88 ± 12*^@^ % | 94 ± 20*^@^ Unit | 0.36 ± 0.04 |  |  |  |  |  |  |  |
| LGMEACGIHETTY [CMS012] | 77 ± 6 |  | 86 ± 9 IU |  | 81 ± 22*^@ Unit | 0.22 ± 0.06*^ % | 0.27 ± 0.06*^@^ % | 0.26 ± 0.02*^@^ % |  | 1.6 ± 0.2 | 40 ± 9 % | 50 ± 14* Unit |  | 85 ± 7 | 141 ± 21*^@^ Unit | 59 ± 13 IU | 65 ± 16 |  |  |  |
| VGMGQKDSYV [CMS020] |  |  |  | 10 ± 3* Unit | 89 ± 24*^@ Unit | 0.23 ± 0.05*^@^ % | 0.24 ± 0.07*^@^ % | 0.27 ± 0.03*^@^ % | 0.19 ± 0.04 % |  |  |  |  | 91 ± 6 | 155 ± 35*^@^ Unit |  | 63 ± 11 | 6.4 ± 0.6 | 0.68 ± 0.09*^@^ % |  |
| LRVAPEEHPVL [CMS013] |  | 84 ± 9 | 154 ± 15*^@^ IU | 7 ± 1* Unit | 93 ± 28*^@ Unit |  | 0.21 ± 0.05 % |  |  |  |  | 70 ± 9*^@ Unit | 0.44 ± 0.07 |  | 80 ± 16*^@ Unit |  |  |  |  | 6.7 ± 0.2 |
| Tyr Ser Phe (YSF; listed as Sus scrofa) [CMS022] | 73 ± 11 |  | 145 ± 13*^@^ IU |  |  | 0.21 ± 0.06 % | 0.25 ± 0.04*^@^ % | 0.30 ± 0.03*^@^ % | 0.26 ± 0.05*^@^ % |  |  | 110 ± 16*^@^ Unit |  |  | 68 ± 31* Unit | 109 ± 14*^@^ IU |  | 7.4 ± 0.6*^@^ |  |  |
